Results taken from patent publication US11491126B2, “Method for reducing lung inflammation” (priority 2017, dated 2022).
Entries after “also recorded” stand apart in the source; their conditions may differ. Where two headings read alike, the source gives them in different places.

Columns and labels:
P. aeruginosa biofilms = test: Biofilms in suspended drops of cystic fibrosis mucus treated with nebulised/aerosolised agents; format: cell-based, Pseudomonas aeruginosa; conditions: treated 5 min, incubated 16 hours; tobramycin 20 mg/ml, CaEDTA particles 10 mg/ml
Experimental: Drops of mucus (5 μl) were suspended from an inverted IBIDI cover slip and inoculated with 10^3 colony forming units (CFU), then incubated in a humidified environment at 35° C. for 72 hours to allow biofilm development. Drops were then treated for 5 min with either nebulised tobramycin (20 mg/ml), aerosolised CaEDTA particles (10 mg/ml), or both. Controls were treated with a 50/50 solution of nebulised 0.9% saline/water. Following treatment, the drops were incubated for 16 hours, then stained with BacLight LIVE/DEAD (1 μl), and fixed in paraformaldehyde vapour for 30 min. Biofilms were visualised using confocal microscopy.

[1] = system: Pseudomonas spp. (P. aeruginosa) in sputum
From the text: Patients were monitored for a further four weeks, bringing the total study time to 10 weeks.

[2] = Experimental: Following discharge, treatment was continued twice a day for four weeks. Subjects were monitored for a further four weeks, bringing the total study time to 10 weeks.
At each study visit, lung function was measured by spirometry. Data was recorded as the best of three attempts, and results were expressed as % predicted.

[3] = remark: listed apart in the source
Experimental: Subjects with CF who need treatment with dry powder tobramycin will be allocated into four cohorts and receive 112 mg dry powder twice a day for 28 days. In addition, Cohort 1 (patients >18 years) will receive ascending doses of dry powder CaEDTA (37.5 mg BID for 1 week; 75 mg BID for 2 weeks, 150 mg BID for 1 week). Cohort 2 (patients >18 years) will receive CaEDTA (37.5 mg BID for 1 week; 75 BID for 2 weeks; 75 mg QID for 1 week). Cohort 3 (patients 12-18 years) will receive CaEDTA (37.5 mg BID for 1 week; 75 mg BID for 2 weeks, 150 mg BID for 1 week. Finally, an observational cohort will receive tobramycin alone for 28 days.
Sputum samples will be collected weekly and assessed for markers of infection and inflammation. Bacteria will be monitored by sputum colony counts. As a measure of structural damage, levels of matrix metalloproteinases (MMPs) and tissue inhibitors of metalloproteinases (TIMPs) are measured using gelatin zymography and immunoassays, respectively, as previously described (Gaggar et al., Eur Respir J. 2011 38(3): 721-727; Garratt et al., Eur Respir J. 2015 46(2):384-94). The amount of iron in the sputum is quantified by ICP-MS as previously described (Hunter et al., MBio. 2013 4(4):1-8). The amount of iron-binding proteins is assessed using immunoassays. Myeloperoxidase activity are also assayed as a measure of neutrophilic inflammation as previously described (Gaggar et al., Eur Respir J. 2011 38(3): 721-727). 3-chlorotyrosine is measured as a biomarker of the potent oxidant hypochlorous acid. Levels are measured using stable isotope dilution gas chromatography with mass spectrometry (Gaggar et al., Eur Respir J. 2011 38(3): 721-727). Protein carbonyls are measured as an indicator of reactive oxygen species (ROS) using a commercial immunoassay kit (Gaggar et al., Eur Respir J. 2011 38(3): 721-727). Oxidative stress is assessed by measuring glutathione (GSSG and GSH) using immunoassays as previously described (Kettle et al., Eur Respir J. 2014 44(1):122-9). Gene expression of inflammatory and oxidative stress markers (e.g. IL-8, IL-6, TNFa) will also be monitored by Nanostring, and proteins will be measured by ELISA. Oxidative stress can also be measured via metabolites, such as molondialdehyde (colorimetric assay) or 8-isoprostane (ELISA). Iron will be measured by elemental analysis using laser ablation-inductively coupled plasma-mass spectrometry (LA-ICP-MS).

Lung epithelial cells = conditions: versus controls
Experimental: Lung epithelial cells are grown in tissue culture and inflammation induced by exposure to Fe(II) or excess oxygen. The cells are treated with CaEDTA (0, 1, 5, 10, 25, 50 mM) for 30 min, 1, 3, 24 and 48 hours.
Immunoassays are used to monitor the change in inflammatory markers, such as IL-6, IL-8, TNF-α, neutrophil elastase and others. Oxidative stress and toxicity is measured by assessing reduced glutathione (GSH) levels and apoptosis based on a TUNEL assay, both using commercial assay kits such as ThermoFisher Scientific's Glutathione Fluorescent Detection Kit and BioVision Inc's TUNEL DNA Gragmentation Assay Kit.

[4] = remark: listed apart in the source
Experimental: Subjects are then discharged and treatment continued twice a day for four weeks. Subjects are monitored for a further four weeks, bringing the total study time to 10 weeks. Sputum is collected by induction with nebulised 3% hypertonic saline at 8-10 L/min for ≥5 minutes. Samples is collected prior to treatment, and at 2, 6 and 10 weeks, processed according to the relevant protocol and stored at −80° C.
Expectorated sputum is stored in RNAlater®, total RNA is extracted using a Qiagen RNEasy® or similar extraction kit, converted into cDNA, and inflammatory markers monitored using qPCR as described by Sivaneson et al. (Mol Microbiol 79, 1353-1366) and quantified relative to known housekeeping genes, such as actin and/or GAPDH.
Expectorated sputum is frozen directly without processing and assayed for inflammatory markers as above. As a measure of structural damage, levels of matrix metalloproteinases (MMPs) and tissue inhibitors of metalloproteinases (TIMPs) are measured using gelatin zymography and immunoassays, respectively as previously described (Gaggar et al., Eur Respir J. 2011 38(3): 721-727; Garratt et al., Eur Respir J. 2015 46(2):384-94). The amount of iron in the sputum is quantified by ICP-MS as previously described (Hunter et al., MBio. 2013 4(4):1-8). The amount of iron-binding proteins is assessed using immunoassays. Oxidative stress is assessed by measuring glutathione (GSSG and GSH) using immunoassays as previously described (Kettle et al., Eur Respir J. 2014 44(1):122-9).

[5] = versus placebo
Experimental: A single centre, randomised, double blind, crossover study of cystic fibrosis subjects is carried out. Subjects are randomised for treatment with inhaled CaEDTA or saline (placebo) for two weeks.
Iron levels, inflammatory markers, MMP/TIMP and FEV1 are monitored as above. Myeloperoxidase activity is also assayed as a measure of neutrophilic inflammation as previously described (Gaggar et al., Eur Respir J. 2011 38(3): 721-727). 3-chlorotyrosine will be measured as a biomarker of the potent oxidant hypochlorous acid. Levels are measured using stable isotope dilution gas chromatography with mass spectrometry (Gaggar et al., Eur Respir J. 2011 38(3): 721-727). Protein carbonyls are measured as an indicator of reactive oxygen species (ROS) using a commercial immunoassay kit (Gaggar et al., Eur Respir J. 2011 38(3): 721-727).

bacterial infections = conditions: inhaled EDTA alone; cited from earlier work
[6] = in vivo; cited from earlier work
[7] = in vivo; cited from earlier work; remark: listed apart in the source
Remark: listed apart in the source
[8] = ten CF children, nebulised, three months; cited from earlier work
[9] = system: Pseudomonas aeruginosa clinical strain; test: MIC of tobramycin for the clinical strain used for biofilms; format: cell-based; conditions: P. aeruginosa clinical strain
[10] = EDTA group versus placebo group

With `O=C(O)CN(CCN(CC(=O)O)CC(=O)O)CC(=O)O` [EDTA, ethylene diamine tetraacetic acid] as the compound, how does the “biofilm viability / killing (BacLight LIVE/DEAD, confocal microscopy)” value (P. aeruginosa biofilms) read?
Its value is “some degree of killing; also recorded: kill P. aeruginosa biofilms and act synergistically with tobramycin”.

What about the “reduction in colony counts of P. aeruginosa (McC agar) versus start of treatment” value ([1]; after two weeks of treatment, 300 mg EDTA/day with tobramycin, placebo 4.5-fold) of the same compound?
Its value is greater than 400 fold.

And the “mean increase in FEV1” value ([2]; after 2 weeks, 300 mg EDTA/day, placebo 5% points)?
The value was 16 % points.

What about the “increase in FEV1” value ([2]; four weeks after the treatment had been completed (10 weeks), placebo 2% point) of the same compound?
Its value is 7 % points.

What about the “effect on lung function” value ([2]; mg EDTA/kg body weight) of the same compound?
The value was “dose-dependent effect on lung function”.

And the “inflammatory markers in sputum” value [3, 10]?
Its value is “reduction in inflammatory markers”.

And the “iron levels in sputum” value [3, 10]?
The value was “decrease in iron levels”.

And the “balance between MMPs and TIMPs” value ([3]; especially MMP-9 and TIMP-1)?
The value was “change in the balance between MMPs and TIMPs”.

And the FEV1 ([3]; versus control patients)?
Its FEV1 is “increase in FEV1”.

What about the “bacterial load in sputum” value ([3]; versus control patients) of the same compound?
Its value is “reduction of bacterial load in sputum”.

And the “inflammatory markers (IL-6, IL-8, TNF-α, neutrophil elastase)” value (Lung epithelial cells; CaEDTA 0-50 mM, 30 min to 48 hours)?
The value was “concentration dependent reduction in inflammatory markers”.

And the “apoptosis (TUNEL assay)” value (Lung epithelial cells)?
Its value is “reduced apoptosis”.

What about the “reduced glutathione (GSH) levels” value (Lung epithelial cells) of the same compound?
The value was “reduction in GSH”.

And the “gene expression of inflammatory markers in sputum (qPCR)” value [4, 10]?
Its value is “mean reduction in the gene expression of inflammatory markers”.

What about the “inflammatory markers in sputum” value [4, 10] of the same compound?
The value was “reduction in inflammatory markers”.

And the “balance between MMPs and TIMPs” value ([4]; especially MMP-9 and TIMP-1)?
Its value is “change in the balance between MMPs and TIMPs”.

What about the MMP/TIMP balance [5] of the same compound?
The MMP/TIMP balance was “altered MMP/TIMP balance”.

What about the inflammatory markers [5] of the same compound?
The inflammatory markers was “reduced levels of iron and inflammatory markers”.

What about the iron levels [5] of the same compound?
The iron levels was “reduced levels of iron”.

And the “mean FEV1” value [5]?
The value was “increased mean FEV1”.

And the “mean levels of chlorotyrosine and carbonyls” value [5]?
The value was “lower mean levels of chlorotyrosine and carbonyls”.

What about the myeloperoxidase activity [5] of the same compound?
The myeloperoxidase activity was “reduced myeloperoxidase activity”.

And the “treatment of bacterial infections” value (bacterial infections)?
The value was “does not treat bacterial infections”.

And the bronchoconstriction [6]?
Its bronchoconstriction is “concentration-dependent bronchoconstriction”.

And the “effect on FEV1” value [7]?
Its value is “no effect on FEV1”.

Which results are given for `O=C([O-])CN(CCN(CC(=O)[O-])CC(=O)[O-])CC(=O)[O-].[Ca+2].[Na+].[Na+]` [CaEDTA, CaNa2EDTA]?
bacterial load in expectorated mucus ([1]; CF subjects, nebulised CaEDTA versus saline): reduces the bacterial load in CF lungs faster than antibiotic treatment alone; EDTA concentration in sputum (5 minutes after 75 mg nebulised CaEDTA, CF subjects): 0.41 to 1.34 mM; EDTA concentration inside mucus plugs (single dose of 75 mg CaEDTA, after 30 minutes): up to 1.34 mM

For sodium EDTA, which lung function [8] is on record?
The lung function was “no change in lung function”.

Which MIC [9] does the source give for `NC[C@H]1O[C@H](O[C@H]2[C@H](O)[C@@H](O[C@H]3O[C@H](CO)[C@@H](O)[C@H](N)[C@H]3O)[C@H](N)C[C@@H]2N)[C@H](N)C[C@@H]1O` [tobramycin] here?
Its MIC is greater than 256 mg/L.

What about the “biofilm viability / killing (BacLight LIVE/DEAD, confocal microscopy)” value (P. aeruginosa biofilms) of the same compound?
The value was “little effect on viability”.
